Measurements reported in patent US20050288371A1, “Treatment of neuropathic pain, fibromyalgia or rheumatoid arthritis” (H. Lundbeck A/S, priority 2004, published 2005).

How the values were obtained:
[1] = background statement on known drugs; cited from earlier work
[2] = formalin pain model; format: in vivo; conditions: s.c. test drug 30 min or 2 h before the test
From the text: The formalin pain model is a well-established animal model of persistent somatic pain (Dubuisson, D. and Dennis, S. G. Pain 4, 1977, 161-174). It has been described as a model of clinical inflammatory pain (Tjølsen, A. and Hole, K, In: Dickenson, A. H. and Besson, J.-M. R., Editors, 1997, The Pharmacology of Pain, Springer-Verlag, Berlin, 1-20). Formalin injected subcutaneously in a hind paw produces initially a local stimulation of the nociceptors; this is referred to as phase 1. This is followed by inflammatory processes and nerve sensitization (phase 2). The latter phase models the neuropathic pain condition. A number of drugs are active in the model, e.g. morphine and in particular antiepileptic drugs (e.g. gabapentin, lamotrigine, carbamazepine) that have shown beneficial effects in clinical neuropathic states. However, these treatments are accompanied by troublesome side effects. The non-steroid antiinflammatory drugs (NSAIDs) that are used for treatment of inflammatory processes in tissue and have relatively weak effects on neuropathic pain conditions have weak activity in the formalin model.
Fifty microliters of 2.5% formalin were administered subcutaneously (s.c.) into the plantar region of the right hind-paw. […] The total time the animal spent licking, biting or shaking the injected paw was recorded. […]

Structure (SMILES) | activity in the formalin model [1] | inhibition of the pain response in phase 1 ([2]; phase 1 (0-5 min after formalin injection)) | inhibition of the pain response in phase 2 ([2]; phase 2 (20-30 min after formalin injection))
NC(=O)N1c2ccccc2C=Cc2ccccc21 [carbamazepine] | active | – | –
NCC1(CC(=O)O)CCCCC1 [gabapentin] | active | – | –
Oc1noc2c1CCNC2 [gaboxadol] | – | potent and dose dependent inhibition of the pain response in phase 1 | potently inhibited the pain response in phase 2, in a dose dependent manner
Nc1nnc(-c2cccc(Cl)c2Cl)c(N)n1 [lamotrigine] | active | – | –
CN1CC[C@]23c4c5ccc(O)c4O[C@H]2[C@@H](O)C=C[C@H]3[C@H]1C5 [morphine] | active | – | –
